Results from US8003812B2, “C10 cyclopentyl ester substituted taxanes” (priority 2004, dated 2011).
Where “and” joins values, the source holds several entries; their conditions need not be identical. Equal values may be shown once.

What was measured:
[1] = system: Sprague-Dawley rats; experiment: In vivo toxicity assessment in rats, intravenous
Procedure: (§1) Toxicity was assessed in 250-300g Sprague-Dawley rats and three rats were used per dose group. Three dose groups of the test compound, (i.e., 3 mg/kg, 9 mg/kg and 12 mg/kg for intravenous administration; 15 mg/kg, 30 mg/kg and 40 mg/kg) and 1 control group constituted a study. Animals were observed and clinical chemistry data collected at days 4 and 10. Rats were euthanized on day 11 and the nerves were excised and fixed upon euthanization for further examination.
(§2) Each rat is scored as described below and a final toxicity score that incorporates all parameters is assigned. A dead rat is assigned a score of zero. Most of the parameters contribute a positive value towards a total possible score of 130. For body weight, white blood cell, and platelet decreases, recovery is considered. […] The total score is divided by 13 to put it on a scale from 0 to 10.

[2] = system: Sprague-Dawley rats; experiment: In vivo toxicity assessment in rats, oral; parameters: species or system rat; key to Neu Tox score: N (0); −10: Y (1-4); key to PTL R (Recovery) score / L/W Dia score / B/M Dia score / BW R (Recovery) score / WBC R (Recovery) score: −5: N; 0: Y; conditions: for Total Score AVE: average of 3 rats; for Total Score: per rat, maximum 130; for ALT score / AST score / B/M Dia score / BW score / L/W Dia score / Neu Tox score / WBC R (Recovery) score / WBC score / BUN score / BW R (Recovery) score / PTL R (Recovery) score / PTL score: score per rat
Procedure: as §1, §2

[3] = system: VM46 (resistant variant of human colon carcinoma HCT 116); experiment: In vitro cytotoxicity, cell colony formation assay, VM46; type: cell-based; conditions: 72 h drug incubation
Procedure: The cells were incubated in a CO2 incubator at 37° C. for 5 h for attachment to the bottom of Petri dishes. The compound of the present invention was made up fresh in medium at ten times the final concentration, and then 0.3 mL of this stock solution was added to the 2.7 mL of medium in the dish. The cells were then incubated with drugs for 72 h at 37° C. At the end of incubation the drug-containing media were decanted, the dishes were rinsed with 4 mL of Hank's Balance Salt Solution (HBSS), 5 mL of fresh medium was added, and the dishes were returned to the incubator for colony formation. The cell colonies were counted using a colony counter after incubation for 7 days. Cell survival was calculated and the values of IC50 (the drug concentration producing 50% inhibition of colony formation) were determined for each tested compound.
Identical assessments were carried out using VM46 (resistant variant of human colon carcinoma HCT 116 obtained from Dr. Li-Xi, M.D, Ph.D., California Pacific Medical Center, CA).

[4] = IV, second IV 9091 line (two IV dosage regimens)
[5] = oral, High Dose 40 mg/kg, 40 mg/kg
[6] = oral, Low Dose 15 mg/kg, 15 mg/kg
[7] = oral, Mid Dose 30 mg/kg, 30 mg/kg

For `CC(=O)OC12COC1CC(O)C1(C)C(=O)C(OC(=O)C3CCCC3)C3=C(C)C(OC(=O)C(O)C(NC(=O)OC(C)C)c4cccs4)CC(O)(C(OC(=O)c4ccccc4)C21)C3(C)C` (stereo not drawn) [Compound 9091], the “Tox Score, Dose 3 mg” value ([1]; IV, scale 0 to 10) was 9, the “Tox Score, Dose 3 mg” value [1, 4] was 9.5 and the “Tox Score, Dose 9 mg” value ([1]; IV, scale 0 to 10) was 7.1. For the same compound, the “Tox Score, Dose 9 mg” value [1, 4] was 8.1, the “Tox Score, Dose 12 mg” value ([1]; IV, scale 0 to 10) was 7.8 and the “Tox Score, Dose 12 mg” value [1, 4] was 6.8. For the same compound, the “Tox Score, Weighted Avg” value ([1]; IV, Wt Avg = (Σ(dose × grp score))/24) was 7.7, the “Tox Score, Average” value ([1]; IV, average of 3 dose groups) was 7.9 and the “Tox Score, Average” value [1, 4] was 8.1. For the same compound, the “Tox Score, Weighted Avg” value [1, 4] was 7.6, the “Rat tox score IV (second value in cell)” value ([1]; IV, second of two values printed for 9091 (two IV regimens)) was 8, 8 and the “Rat tox score IV” value ([1]; IV, summary score, scale 0 to 10) was 8, 8. The “toxicity profile in rats compared with congeners” value ([1]; administered intravenously) was “best toxicity profile”, the “Tox Score, Dose 15 mg” value ([2]; Oral, dose 15 mg, scale 0 to 10) was 7.4 and the “Tox Score, Dose 30 mg” value ([2]; Oral, dose 30 mg, scale 0 to 10) was 6.7. The “Tox Score, Dose 40 mg” value ([2]; Oral, dose 40 mg, scale 0 to 10) was 4.6, the “Tox Score, Average” value ([2]; Oral, average of 3 dose groups) was 6.2 and the “Tox Score, Weighted Avg” value ([2]; Oral, weighted by dose) was 5.8. For the same compound, the “Rat tox score PO” value ([2]; PO, summary score, scale 0 to 10) was 6, the “toxicity profile in the oral rat studies compared with congener” value ([2]; oral) was “better toxicity profile” and the “Total Score AVE” value ([2]; oral, High Dose 40 mg/kg) was 60. The “Total Score” value [2, 5] was 55 and 65 and 60, the “Group score = average of 3 rats/13” value ([2]; oral, High Dose 40 mg/kg, scale 0 to 10) was 4.62 and the ALT score ([2]; oral, High Dose 40 mg/kg) was 20 (<1.25Xcont). For the same compound, the AST score ([2]; oral, High Dose 40 mg/kg) was 20 (<1.25Xcont), the “B/M Dia score” value ([2]; oral, High Dose 40 mg/kg) was 0 and the BW score ([2]; oral, High Dose 40 mg/kg) was 0 (≧20%). The “L/W Dia score” value ([2]; oral, High Dose 40 mg/kg) was 0, the “Neu Tox score” value ([2]; oral, High Dose 40 mg/kg) was −10 and the “WBC R (Recovery) score” value ([2]; oral, High Dose 40 mg/kg) was 0. For the same compound, the WBC score ([2]; oral, High Dose 40 mg/kg) was 0 (≧50%), the BUN score [2, 5] was 10 (≧1.25Xcont) and 20 (<1.25Xcont) (2×) and the “BW R (Recovery) score” value [2, 5] was 0 and −5 (2×). The “PTL R (Recovery) score” value [2, 5] was −5 and 0 (2×), the PTL score [2, 5] was 20 (<25%) (2×) and 5 (≧50%) and the “Total Score AVE” value ([2]; oral, Low Dose 15 mg/kg) was 96.7. The “Total Score” value [2, 6] was 110 and 85 and 95, the “Group score = average of 3 rats/13” value ([2]; oral, Low Dose 15 mg/kg, scale 0 to 10) was 7.44 and the ALT score ([2]; oral, Low Dose 15 mg/kg) was 20 (<1.25Xcont). For the same compound, the AST score ([2]; oral, Low Dose 15 mg/kg) was 20 (<1.25Xcont), the “B/M Dia score” value ([2]; oral, Low Dose 15 mg/kg) was 5 and the BUN score ([2]; oral, Low Dose 15 mg/kg) was 20 (<1.25Xcont). For the same compound, the “BW R (Recovery) score” value ([2]; oral, Low Dose 15 mg/kg) was 0, the “L/W Dia score” value ([2]; oral, Low Dose 15 mg/kg) was 0 and the “Neu Tox score” value ([2]; oral, Low Dose 15 mg/kg) was −10. For the same compound, the “PTL R (Recovery) score” value ([2]; oral, Low Dose 15 mg/kg) was 0, the “WBC R (Recovery) score” value ([2]; oral, Low Dose 15 mg/kg) was 0 and the BW score [2, 6] was 20 (<10%) (2×) and 10 (≧10%). For the same compound, the PTL score [2, 6] was 20 (<25%) (2×) and 10 (≧25%), the WBC score [2, 6] was 5 (≧25%) and 0 (≧50%) (2×) and the “Total Score AVE” value ([2]; oral, Mid Dose 30 mg/kg) was 86.7. For the same compound, the “Total Score” value [2, 7] was 85 and 95 and 80, the “Group score = average of 3 rats/13” value ([2]; oral, Mid Dose 30 mg/kg, scale 0 to 10) was 6.67 and the ALT score ([2]; oral, Mid Dose 30 mg/kg) was 20 (<1.25Xcont). For the same compound, the AST score ([2]; oral, Mid Dose 30 mg/kg) was 20 (<1.25Xcont), the “B/M Dia score” value ([2]; oral, Mid Dose 30 mg/kg) was 0 and the BUN score ([2]; oral, Mid Dose 30 mg/kg) was 20 (<1.25Xcont). The “BW R (Recovery) score” value ([2]; oral, Mid Dose 30 mg/kg) was 0, the “L/W Dia score” value ([2]; oral, Mid Dose 30 mg/kg) was 0 and the “Neu Tox score” value ([2]; oral, Mid Dose 30 mg/kg) was −10. The “PTL R (Recovery) score” value ([2]; oral, Mid Dose 30 mg/kg) was 0, the PTL score ([2]; oral, Mid Dose 30 mg/kg) was 20 (<25%) and the “WBC R (Recovery) score” value ([2]; oral, Mid Dose 30 mg/kg) was 0. For the same compound, the BW score [2, 7] was 5 (≧15%) and 10 (≧10%) (2×), the WBC score [2, 7] was 0 (≧50%) (2×) and 5 (≧25%) and the IC50 [3] was 1.9 nM and 1.87 nM.
